{
  "source": "paper PMC9324382",
  "about": "(Viruses, 2022)",
  "biological_target": "T1, SARS-CoV-2 M^pro (main protease) (Severe acute respiratory syndrome coronavirus 2, UniProt P0DTD1)",
  "T1 construct": "gene rep",
  "test": "FRET peptide cleavage assay, Morrison fit",
  "type": "biochemical",
  "data": [
    {"smiles": "O=c1c(O)c(-c2ccc(O)c(O)c2)oc2cc(O)ccc12", "note": "[Fisetin]", "values": [
      {"measurement": "Ki", "result": "41.8 ± 2.1", "unit": "nM"}
    ]}
  ]
}
